ChEMBL document CHEMBL1909046, “DrugMatrix in vitro pharmacology data”

Assays:
[1] = target: T1, Alpha-1B adrenergic receptor (Rattus norvegicus, UniProt P15823); assay: DRUGMATRIX: Alpha-1B adrenergic receptor radioligand binding (ligand: prazosin); assay type: cell membranes, Wistar, Liver, Membrane; settings: Not Active = under 50% inhibition at 10 µM
T1 sequence (P15823 whole entry): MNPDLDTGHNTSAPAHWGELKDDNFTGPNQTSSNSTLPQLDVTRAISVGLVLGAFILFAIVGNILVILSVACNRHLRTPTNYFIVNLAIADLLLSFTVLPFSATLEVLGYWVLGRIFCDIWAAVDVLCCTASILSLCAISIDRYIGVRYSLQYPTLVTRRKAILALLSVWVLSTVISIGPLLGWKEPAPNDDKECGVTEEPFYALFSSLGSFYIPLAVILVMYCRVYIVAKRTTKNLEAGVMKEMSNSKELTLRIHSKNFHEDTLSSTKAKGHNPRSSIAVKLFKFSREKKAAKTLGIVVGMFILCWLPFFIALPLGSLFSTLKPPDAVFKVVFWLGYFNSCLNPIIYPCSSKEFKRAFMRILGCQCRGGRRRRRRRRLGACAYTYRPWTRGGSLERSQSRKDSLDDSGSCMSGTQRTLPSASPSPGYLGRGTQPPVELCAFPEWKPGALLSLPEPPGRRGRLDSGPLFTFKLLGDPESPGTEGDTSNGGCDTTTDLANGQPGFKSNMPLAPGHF

[2] = DRUGMATRIX: Serotonin (5-Hydroxytryptamine) 5-HT3 radioligand binding (ligand: [3H] GR-65630); assay type: cell membranes, Membrane; settings: hek293; Not Active = under 50% inhibition at 10 µM
[3] = DRUGMATRIX: Calcium Channel Type L, Phenylalkylamine radioligand binding (ligand: [3H] (-)-Desmethoxyverapamil (D-888)); assay type: cell membranes, Rattus norvegicus, Wistar, Brain, Membrane; settings: Not Active = under 50% inhibition at 10 µM
[4] = DRUGMATRIX: GABAA, Muscimol, Central radioligand binding (ligand: [3H] Muscimol); assay type: cell membranes, Rattus norvegicus, Wistar, Brain, Membrane; settings: Not Active = under 50% inhibition at 10 µM
[5] = target: T2, Polyunsaturated fatty acid lipoxygenase ALOX15 (Oryctolagus cuniculus, UniProt P12530); assay: biochemical; assay type: tissue-based, Reticulocytes;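 also: inhibition of 15-lipoxygenase enzyme activity measured with linoleic acid as the substrate; in other assays of this panel Not Active means under 50% inhibition at 10 µM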
T2 sequence (P12530 whole entry): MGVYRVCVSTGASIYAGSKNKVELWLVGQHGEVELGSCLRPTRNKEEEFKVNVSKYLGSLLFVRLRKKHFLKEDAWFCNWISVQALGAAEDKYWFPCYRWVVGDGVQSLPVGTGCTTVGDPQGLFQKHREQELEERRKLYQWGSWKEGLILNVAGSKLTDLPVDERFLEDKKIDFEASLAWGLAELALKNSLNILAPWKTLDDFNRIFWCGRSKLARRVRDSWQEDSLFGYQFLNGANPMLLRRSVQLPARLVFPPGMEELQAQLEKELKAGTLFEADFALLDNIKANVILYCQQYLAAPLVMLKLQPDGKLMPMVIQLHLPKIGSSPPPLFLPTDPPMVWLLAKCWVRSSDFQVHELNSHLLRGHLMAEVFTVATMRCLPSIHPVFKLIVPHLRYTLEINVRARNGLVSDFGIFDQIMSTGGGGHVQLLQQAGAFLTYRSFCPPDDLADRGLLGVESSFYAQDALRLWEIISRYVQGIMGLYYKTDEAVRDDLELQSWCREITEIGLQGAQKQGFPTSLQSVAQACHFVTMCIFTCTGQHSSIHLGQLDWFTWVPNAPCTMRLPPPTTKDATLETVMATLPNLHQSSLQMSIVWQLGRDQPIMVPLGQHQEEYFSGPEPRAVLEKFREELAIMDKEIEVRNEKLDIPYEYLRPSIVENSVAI

[6] = target: Receptor tyrosine-protein kinase erbB-2 (Homo sapiens, UniProt P04626); assay: biochemical; assay type: cell-based, Insect cells;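 also: inhibition of HER2 kinase enzyme activity, measured with Poly(Glu:Tyr) as the phosphorylation substrate; in other assays of this panel Not Active means under 50% inhibition at 10 µM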
Cytochrome P450 2E1 = Cytochrome P450 2E1 (Homo sapiens, UniProt P05181); settings: bti-tn-5b1-4; also: in other assays of this panel Not Active means under 50% inhibition at 10 µM
Sequence of Cytochrome P450 2E1 (P05181 whole entry): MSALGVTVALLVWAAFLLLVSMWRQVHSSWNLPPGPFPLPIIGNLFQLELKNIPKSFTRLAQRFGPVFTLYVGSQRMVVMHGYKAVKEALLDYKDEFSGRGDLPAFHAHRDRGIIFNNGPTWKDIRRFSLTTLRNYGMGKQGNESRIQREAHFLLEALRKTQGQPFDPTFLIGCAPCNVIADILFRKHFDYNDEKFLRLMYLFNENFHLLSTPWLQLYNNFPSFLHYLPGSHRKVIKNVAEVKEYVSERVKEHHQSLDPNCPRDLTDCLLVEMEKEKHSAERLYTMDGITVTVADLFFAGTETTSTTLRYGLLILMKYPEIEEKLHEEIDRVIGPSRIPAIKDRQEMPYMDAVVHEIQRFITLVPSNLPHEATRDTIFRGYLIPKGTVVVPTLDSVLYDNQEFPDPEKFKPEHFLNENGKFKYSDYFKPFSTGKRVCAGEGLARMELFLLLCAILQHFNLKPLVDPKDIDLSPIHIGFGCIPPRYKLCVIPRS

Molecule	IC50 [1]	IC50 [2]	Ki [2]	IC50 [3]	Ki [3]	IC50 [4]	Ki [4]	IC50 ([5]; reticulocytes)	IC50 ([6]; insect cells)	IC50 (Cytochrome P450 2E1)	Ki (Cytochrome P450 2E1)	IC50 ([6]; read-out: IC50)	IC50 ([5]; read-out: IC50)	Ki [1]	Ki ([5]; reticulocytes)	Ki ([6]; insect cells)	IC50 ([3]; read-out: IC50)	Ki ([3]; read-out: Ki)	IC50 ([1]; read-out: IC50)	Ki ([1]; read-out: Ki)
O=C(Oc1ccccc1C(=O)O)c1ccccc1O [SALSALATE]	Not Active	Not Active	Not Active	Not Active	Not Active	Not Active	Not Active	Not Active	Not Active	Not Active	Not Active	–	–	–	–	–	–	–	–	–
CNC1(c2ccccc2Cl)CCCCC1=O (stereo unspecified) [KETAMINE]	Not Active	Not Active	Not Active	Not Active	Not Active	Not Active	Not Active	Not Active	Not Active	Not Active	Not Active	–	–	–	–	–	–	–	–	–
Fc1ccc(C(c2ccc(F)cc2)N2CCN(C/C=C/c3ccccc3)CC2)cc1 [FLUNARIZINE]	–	–	–	–	–	–	–	Not Active	Not Active	Not Active	Not Active	–	–	–	–	–	–	–	–	–
CN[C@H]1CC[C@@H](c2ccc(Cl)c(Cl)c2)c2ccccc21 [SERTRALINE]	–	–	–	–	–	–	–	Not Active	Not Active	Not Active	Not Active	–	–	–	–	–	–	–	–	–
O=C(Nc1ccc(Br)cc1)c1cc(Br)cc(Br)c1O [TRIBROMSALAN]	Not Active	Not Active	Not Active	Not Active	Not Active	Not Active	Not Active	Not Active	–	Not Active	Not Active	5.97 µM	–	–	–	–	–	–	–	–
CC(C)NCC(O)c1ccc(O)c(O)c1 (stereo unspecified) [ISOPROTERENOL]	Not Active	Not Active	Not Active	Not Active	Not Active	Not Active	Not Active	–	Not Active	Not Active	Not Active	–	1.77 µM	–	–	–	–	–	–	–
Cc1cccc(C)c1OCC(C)N (stereo unspecified) [MEXILETINE]	Not Active	Not Active	Not Active	Not Active	Not Active	Not Active	Not Active	Not Active	Not Active	Not Active	Not Active	–	–	–	–	–	–	–	–	–
MANGANESE CHLORIDE ANHYDROUS	Not Active	Not Active	Not Active	Not Active	Not Active	Not Active	Not Active	Not Active	Not Active	Not Active	Not Active	–	–	Not Active	Not Active	Not Active	–	–	–	–
CCN(CC)CCNC(=O)c1cc(S(C)(=O)=O)ccc1OC [TIAPRIDE]	Not Active	Not Active	Not Active	Not Active	Not Active	Not Active	Not Active	Not Active	Not Active	Not Active	Not Active	–	–	–	–	–	–	–	–	–
Clc1ccc(COC(Cn2ccnc2)c2ccc(Cl)cc2Cl)cc1 (stereo unspecified) [ECONAZOLE]	–	–	–	–	–	–	–	Not Active	–	Not Active	Not Active	13.9 µM	–	–	–	–	–	–	–	–
COc1c2occc2cc2ccc(=O)oc12 [METHOXSALEN]	Not Active	Not Active	Not Active	Not Active	Not Active	Not Active	Not Active	Not Active	Not Active	Not Active	Not Active	–	–	–	–	–	–	–	–	–
O.O.O.O.O.O.[Cl-].[Cl-].[Sr+2] [STRONTIUM CHLORIDE HEXAHYDRATE]	Not Active	Not Active	Not Active	Not Active	Not Active	Not Active	Not Active	Not Active	Not Active	Not Active	Not Active	–	–	–	–	–	–	–	–	–
COc1ccc(CCN(C)CCCC(C#N)(c2ccc(OC)c(OC)c2)C(C)C)cc1OC (stereo unspecified)	–	Not Active	Not Active	–	–	Not Active	Not Active	Not Active	Not Active	Not Active	Not Active	–	–	–	–	–	0.047 µM	0.045 µM	–	–
CCN(CC)CCOc1ccc(/C(=C(/Cl)c2ccccc2)c2ccccc2)cc1 [ENCLOMIPHENE]	–	–	–	–	–	–	–	Not Active	–	Not Active	Not Active	1.67 µM	–	–	–	–	–	–	–	–
Clc1ccccc1CN1CCc2sccc2C1 [TICLOPIDINE]	Not Active	Not Active	Not Active	Not Active	Not Active	Not Active	Not Active	Not Active	Not Active	Not Active	Not Active	–	–	–	–	–	–	–	–	–
CC(C)Oc1ccc2c(=O)c(-c3ccccc3)coc2c1 [IPRIFLAVONE]	Not Active	Not Active	Not Active	Not Active	Not Active	Not Active	Not Active	Not Active	Not Active	Not Active	Not Active	–	–	–	–	–	–	–	–	–
COc1cc2nc(N3CCN(C(=O)C4CCCO4)CC3)nc(N)c2cc1OC (stereo unspecified) [TERAZOSIN]	–	Not Active	Not Active	Not Active	Not Active	Not Active	Not Active	Not Active	Not Active	Not Active	Not Active	–	–	–	–	–	–	–	0.00603 µM	0.00333 µM
C[C@H]1C[C@@H]2[C@H]([C@@H](O)C[C@@]3(C)[C@H]2CC[C@]3(O)C(=O)CO)[C@@]2(C)C=CC(=O)C=C12 [METHYLPREDNISOLONE]	Not Active	Not Active	Not Active	Not Active	Not Active	Not Active	Not Active	Not Active	Not Active	Not Active	Not Active	–	–	–	–	–	–	–	–	–
NC1CCN(c2nc3c(cc2F)c(=O)c(C(=O)O)cn3-c2ccc(F)cc2F)C1 (stereo unspecified) [TOSUFLOXACIN]	Not Active	Not Active	Not Active	Not Active	Not Active	Not Active	Not Active	Not Active	Not Active	Not Active	Not Active	–	–	–	–	–	–	–	–	–
SODIUM ORTHOVANAD	Not Active	Not Active	Not Active	Not Active	Not Active	Not Active	Not Active	Not Active	Not Active	Not Active	Not Active	–	–	Not Active	Not Active	Not Active	–	–	–	–
Cc1c(C)c2c(c(C)c1O)CCC(C)(CN1CCN(c3cc(N4CCCC4)nc(N4CCCC4)n3)CC1)O2 (stereo unspecified)	Not Active	Not Active	Not Active	Not Active	Not Active	Not Active	Not Active	–	Not Active	–	–	–	5.67 µM	–	–	–	–	–	–	–
CN(C)CCOC(c1ccccc1)c1ccccc1 [DIPHENHYDRAMINE]	–	–	–	–	–	–	–	Not Active	Not Active	–	–	–	–	–	–	–	–	–	–	–
CNCCC(Oc1ccc(C(F)(F)F)cc1)c1ccccc1 (stereo unspecified) [FLUOXETINE]	–	–	–	–	–	–	–	Not Active	Not Active	Not Active	Not Active	–	–	–	–	–	–	–	–	–
Cc1ccc(NC(=O)c2ccc(CN3CCN(C)CC3)cc2)cc1Nc1nccc(-c2cccnc2)n1 [IMATINIB]	–	–	–	–	–	–	–	Not Active	–	Not Active	Not Active	–	–	–	–	–	–	–	–	–
CO[C@@H]1[C@@H](OC)[C@H](C)[C@@](O)(CC(=O)O)O[C@H]1[C@H](C)[C@H]1O[C@@]2(CC[C@@](C)([C@H]3CC[C@@](C)([C@@H]4O[C@@H]([C@H]5O[C@](C)(O)[C@H](C)C[C@@H]5C)C[C@@H]4O[C@@H]4C[C@H](OC)[C@@H](OC)[C@H](C)O4)O3)O2)C[C@H](O)[C@H]1C [MADURAMICIN ACID]	–	Not Active	Not Active	Not Active	Not Active	Not Active	Not Active	Not Active	Not Active	Not Active	Not Active	–	–	–	–	–	–	–	–	–
